The assay deals with Human Inducible Nitric Oxide Synthase (Homo sapiens, UniProt P35228). The assay can be described thus: Inhibition of human inducible nitric oxide synthase (formation of L-[2,3,4,5-3H]citrulline from L-[2,3,4,5-3H]arginine). It is filed as biochemical. As to conditions: 1 μM L-Arg, pH 7.5, room temperature, 30 minutes, aqueous DMSO (max. 5%). The source says:
26, pp. 258-264. […] J Lowenstein and S. H. Snyder in Methods in Enzymology, Vol. 233, L. Packer, ed., Academic Press, NY, 1994, Ch. 26, pp. 264-269. Various assays for NOS activity have been reported in the literature and are reviewed in the following: M. E. Murphy and E. Noack in Methods in Enzymology, Vol. 233, L. Packer, ed., Academic Press, NY, 1994, Ch. 26, pp. 240-250 and J. M. Hevel and M. A. Marletta in Methods in Enzymology, Vol. 233, L. Packer, ed., Academic Press, NY, 1994, Ch. 26, pp. 250-258. Details for the assay protocols to measure NOS activity are as follows: […] The incubation buffer (100 μL) contained; 100 mM TES, pH 7.5, 5 μM FAD, 5 μM FMN, 10 μM BH4, 0.5 mM NADPH, 0.5 mM DTT, 0.5 mg/mL BSA, 2 mM CaCl2, 10 μg/mL calmodulin (bovine), 1 μM L-Arg, 0.2 μCi L-[2,3,4,5-^3 H]Arg, and the inhibitor in aqueous DMSO (max. 5%). The reaction is initiated by addition of enzyme. Incubations are performed at room temperature for 30 minutes and stopped by the addition of an equal volume of quenching buffer consisting of 200 mM sodium citrate, pH 2.2, 0.02% sodium azide. Reaction products are separated by passing through a cation exchange resin and quantitated as cpm by scintillation counting. Percent inhibition is calculated relative to enzyme incubated without inhibitor according to: […]. Illustrative of the utility of the compounds of Formula I is the ability of such compounds to inhibit NO synthase as shown in Table 1 and as measured by the assay described above: […]

By IC50 is commonly meant the concentration at which inhibition is half-maximal. Lower therefore signals greater potency.

Structures can show the parent of a compound that is named as a salt.

Compound `N=C(N)SC[C@@H]1CN[C@H](C(=O)O)C1` [compound 5, (4S)-4-[(Isothioureido)methyl]-L-Proline Dihydrochloride] showed an IC50 of 111 µM.
In the case of `N=C(N)NC[C@@H]1CN[C@H](C(=O)O)C1` [compound 1, (4S)-4-(Guanidinomethyl)-L-Proline Dihydrochloride] it was 7.1 µM; in that of `N=C(N)N[C@@H]1CN[C@H](C(=O)O)C1` [compound 3, (4S)-4-Guanidino-L-Proline Dihydrochloride], 2.7 µM; in that of `N=C(N)NC[C@H]1CN[C@H](C(=O)O)C1` [compound 2, (4R)-4-(Guanidinomethyl)-L-Proline Dihydrochloride], 3.5 µM.
Consider `COC(=O)[C@@H]1C[C@@H](CNC(=N)N)CN1` [compound 6, (4R)-4-(Guanidinomethyl)-L-Proline Methyl Ester Dihydrochloride], for which the IC50 was determined as 11 µM.

Source of the values: patent US5821261A, “Substituted saturated aza heterocycles as inhibitors of nitric oxide synthase” (Merck & Co., Inc., priority 1996, dated 1998).
